SMILES strings stand for the structures.

The source of these data is patent publication US20160128339A1, “CHROMOBACTERIUM FORMULATIONS, COMPOSITIONS, METABLOITES AND THEIR USES” (priority 2011, published 2016).

The subject of the experiment is TSSM. The experiment can be described thus: TSSM control on field strawberry transplants. The class given is in vivo, Tetranychus urticae. The note with it: rate/acre: abamectin 16 fl. oz., bifenzate 1 lb + INDUCE, COHERE 16 fl. oz., spiromesifin 12 fl. oz. + INDUCE, fenpyroximate 32 fl. oz., hexythiazox 6 oz.; for Number of eggs TSSM/leaflet day 90 / Number of motile TSSM/leaflet day 90: before first spray. The protocol: The efficacy of five traditional compounds and MBI-203 ingredients were evaluated for TSSM control on field strawberry transplants at the Florida Gulf Coast Research and Education Center. Seedlings were transplanted in the Field (day 0), Each 12.5-ft. plot consisted of 20 plants. Plots were infested four times from day 55 through day 71 with 10 to 20 motile TSSM per plant. Seventeen treatments of various rates and schedules of application of miticides, some combined with an adjuvant, and a non-treated check were replicated four times in a RCB design. Treatments were applied using a hand held sprayer with a spray wand outfitted with a nozzle containing a 45-degree core and a number four disc. The sprayer was pressurized by CO2, to 40 psi, and calibrated to deliver 100 gal per acre. Samples were collected weekly from day 90 before first spray through 2 wks after the last application of treatments (day 154). Samples consisted of ten randomly selected leaflets per plot and were collected from the middle one-third stratum of the plants. Motile and egg TSSM were brushed from the leaflets onto rotating sticky discs and counted. No phytotoxicity was observed.

Consider `COc1ccc(-c2ccccc2)cc1NNC(=O)OC(C)C` [Bifenzate], for which the “Number of eggs TSSM/leaflet day 90” value came to 3.8, the “Number of motile TSSM/leaflet day 90” value is listed as 3.8, the “Number of eggs TSSM/leaflet day 98” value is given as 6.0 and the “Number of eggs TSSM/leaflet day 105” value is recorded as 6.0. Also, the “Number of eggs TSSM/leaflet day 111” value came out at 0.8, the “Number of eggs TSSM/leaflet day 118” value was 8.3, the “Number of eggs TSSM/leaflet day 125” value amounted to 20.5 and the “Number of eggs TSSM/leaflet day 132” value was 3.01. For the same molecule, the “Number of eggs TSSM/leaflet day 139” value stood at 28.0, the “Number of eggs TSSM/leaflet day 146” value came to 66.5, the “Number of eggs TSSM/leaflet day 154” value turned out to be 128.3 and the “Number of motile TSSM/leaflet day 98” value was determined as 6.0. Also, the “Number of motile TSSM/leaflet day 105” value stood at 6.0, the “Number of motile TSSM/leaflet day 111” value worked out at 0.8, the “Number of motile TSSM/leaflet day 118” value was determined as 8.3 and the “Number of motile TSSM/leaflet day 125” value was found to be 20.5. Besides, the “Number of motile TSSM/leaflet day 132” value is 3.0, the “Number of motile TSSM/leaflet day 139” value was determined as 28.0, the “Number of motile TSSM/leaflet day 146” value is 66.5 and the “Number of motile TSSM/leaflet day 154” value is given as 128.3.

On to `Cc1nn(C)c(Oc2ccccc2)c1C=NOCc1ccc(C(=O)OC(C)(C)C)cc1` [Fenpyroximate], for which the “Number of eggs TSSM/leaflet day 90” value turned out to be 9.3, the “Number of motile TSSM/leaflet day 90” value stood at 4.5, the “Number of eggs TSSM/leaflet day 98” value is reported as 11.8 and the “Number of eggs TSSM/leaflet day 105” value is on record as 12.3. For the same molecule, the “Number of eggs TSSM/leaflet day 111” value was 12.5, the “Number of eggs TSSM/leaflet day 118” value is 1.0, the “Number of eggs TSSM/leaflet day 125” value was found to be 34.5 and the “Number of eggs TSSM/leaflet day 132” value is reported as 20.8. Moreover, the “Number of eggs TSSM/leaflet day 139” value is 28.5, the “Number of eggs TSSM/leaflet day 146” value is recorded as 97.3, the “Number of eggs TSSM/leaflet day 154” value amounted to 240.8 and the “Number of motile TSSM/leaflet day 98” value is 3.8. Moreover, the “Number of motile TSSM/leaflet day 105” value was found to be 6.5, the “Number of motile TSSM/leaflet day 111” value came out at 2.8, the “Number of motile TSSM/leaflet day 118” value was 2.0 and the “Number of motile TSSM/leaflet day 125” value is reported as 7.3. In addition, the “Number of motile TSSM/leaflet day 132” value is on record as 5.3, the “Number of motile TSSM/leaflet day 139” value was 10.0, the “Number of motile TSSM/leaflet day 146” value came out at 34.3 and the “Number of motile TSSM/leaflet day 154” value came to 145.3.

Regarding `C[C@@H]1[C@@H](c2ccc(Cl)cc2)SC(=O)N1C(=O)NC1CCCCC1` [Hexythiazox], the “Number of eggs TSSM/leaflet day 90” value amounted to 2.0, the “Number of motile TSSM/leaflet day 90” value is 2.0, the “Number of eggs TSSM/leaflet day 98” value amounted to 8.5 and the “Number of eggs TSSM/leaflet day 105” value is recorded as 15.0. Further, the “Number of eggs TSSM/leaflet day 111” value came out at 17.0, the “Number of eggs TSSM/leaflet day 118” value is reported as 22.0, the “Number of eggs TSSM/leaflet day 125” value is listed as 71.5 and the “Number of eggs TSSM/leaflet day 132” value is recorded as 128.5. Also, the “Number of eggs TSSM/leaflet day 139” value was 281.5, the “Number of eggs TSSM/leaflet day 146” value stood at 393.5, the “Number of eggs TSSM/leaflet day 154” value is recorded as 533.0 and the “Number of motile TSSM/leaflet day 98” value amounted to 1.8. For the same molecule, the “Number of motile TSSM/leaflet day 105” value is 2.8, the “Number of motile TSSM/leaflet day 111” value is 6.0, the “Number of motile TSSM/leaflet day 118” value is given as 13.8 and the “Number of motile TSSM/leaflet day 125” value was 23.0. The “Number of motile TSSM/leaflet day 132” value was found to be 57.5, the “Number of motile TSSM/leaflet day 139” value came to 103.3, the “Number of motile TSSM/leaflet day 146” value came to 196.0 and the “Number of motile TSSM/leaflet day 154” value came to 285.5.
